Data as given in publication PMC6917776, “Discovery of a chemical probe for PRDM9” (Nature Communications, 2019).
“And” between values parts separate entries of the source, which are not always exact repeats. Identical values can stand only once. Like-named read-outs stand apart in the source and are kept apart here.

Columns and labels:
PRDM7 = target: T1, PRDM7 (Homo sapiens, UniProt Q9NQW5); test: PRDM7 methyltransferase activity assay (3H-SAM scintillation proximity assay); format: biochemical; settings: for activity at 50 µM: 50 µM compound
T1 sequence (Q9NQW5 1-492): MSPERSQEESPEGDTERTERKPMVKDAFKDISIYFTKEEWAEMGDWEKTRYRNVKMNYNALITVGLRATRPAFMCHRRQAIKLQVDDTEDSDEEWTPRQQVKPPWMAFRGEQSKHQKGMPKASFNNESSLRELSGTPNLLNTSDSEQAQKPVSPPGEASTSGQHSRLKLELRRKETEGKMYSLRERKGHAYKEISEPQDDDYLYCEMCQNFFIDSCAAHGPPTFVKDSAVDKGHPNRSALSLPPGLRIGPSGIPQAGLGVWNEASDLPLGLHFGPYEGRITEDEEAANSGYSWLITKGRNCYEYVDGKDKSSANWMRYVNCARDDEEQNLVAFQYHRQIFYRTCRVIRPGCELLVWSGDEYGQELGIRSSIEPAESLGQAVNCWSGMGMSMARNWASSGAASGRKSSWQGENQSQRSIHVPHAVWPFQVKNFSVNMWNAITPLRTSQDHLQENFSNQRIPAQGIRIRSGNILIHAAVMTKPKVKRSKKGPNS
Description: Methyltransferase activity assays for PRDM9 (amino acids: 195–415) were performed by monitoring the incorporation of tritium-labeled methyl group from ^3H-SAM to H3 (1–25) peptide using scintillation proximity assay (SPA). The enzymatic reactions were performed at 23 °C with 30 min incubation in 20 mM Tris-HCl (pH 7.5), 5 mM DTT, 0.01% Triton X-100 and 1% DMSO containing 71 μM of SAM (5 μM of ^3H-SAM), 4 μM of biotinylated H3 (1–25) peptide and 5 nM of PRDM9. For PRDM7, reactions were performed at 23 °C with 90 min incubation in 20 mM BTP pH 9.0, 5 mM DTT, 0.01% Triton X-100 and 1% DMSO containing 900 μM of SAM (5 μM of ^3H-SAM), 4 μM of biotinylated H3 (1–25) peptide and 100 nM of enzyme. Compounds were titrated from 3 nM to 50 μM and from 200 nM to 200 μM for PRDM9 and PRDM7, respectively. To stop the reactions, 10 μL of 7.5 M guanidine hydrochloride was added to 10 μL of reaction mixture, followed by 60 μL of buffer (20 mM Tris, pH 8.0), mixed, and transferred to a 384-well streptavidin coated Flash-plate. After mixing, the mixtures in Flash-plate were incubated for 2 h, and the CPM counts were measured using TopCount plate reader. All enzymatic reactions were performed in triplicate, and IC50 values were determined by fitting the data to Four Parameter Logistic equation using the GraphPad Prism software.

[1] = system: NanoLuc-tagged PRDM9 (residues 135–285); test: NanoLuciferase thermal shift assay (NALTSA) in HEK293T cells; format: cell-based, human; settings: for Normalized_Signal: Fig. 5a, independent replicates
Description: Cells treated with 0.1% DMSO alone were used as a control.
Shown is the mean ± SEM of three biological replicates. Boxes indicate the mean values. P-values calculated using an unpaired Welch’s two-tailed t-test, *p-value = 0.017. Source data are provided as a Source Data file.
NALTSA assays were performed as previously described. Briefly, HEK293T cells were plated in 6-well plates at a density of 1.5 × 10^5 cells/mL. The following day, cells were transfected with 2 µg of C-terminally NanoLuc®-tagged PRDM9 (residues 135–285) with X-tremeGene HP DNA Transfection Reagent (Roche). Cells were incubated for 24 h, trypsinized and resuspended at 1.5 × 10^5 cells/mL in 1x PBS supplemented with protease inhibitors. Cell suspensions were incubated at 37 °C with 10 μM compound or 0.1% DMSO alone for 1 h. Sixty microliters of cells was dispensed per well of a 96-well PCR plate followed by heating across a temperature gradient for 3 min on a Mastercycler® thermal cycler (Eppendorf). After heating, samples were transferred to a 96-well white plastic plate (Corning) and Glo® Substrate (Promega) was added to each well at 1:1000 final dilution. NanoLuciferase signal was read at 450 nm (filter: 450 nm/BP 80 nm) on a CLARIOstar microplate reader (Mandel).

HEK293T cells = test: Cell growth, IncuCyte ZOOM cell number; format: cell-based; settings: for Cell# - toxocity data, % Control: HEK293T-1day, Figure 6c, technical replicates

COc1cc(OC)cc(-c2noc(N3CCN(C)C4(CCN(c5ccnc(C)c5)CC4)C3)n2)c1 [MRK-740]
PRDM7-Activity %, single experiments (PRDM7; 0.195312 µM compound, 0.195312 µM): 104.6% and 100.9%
activity at 0.195312 µM (PRDM7; 0.195312 µM compound, read-out: PRDM7-Activity %, Average (n=3)): 103%
activity at 0.195312 µM (PRDM7; 0.195312 µM compound, read-out: PRDM7-Activity %, single experiments): 104%
PRDM7-Activity %, single experiments (PRDM7; 0.390625 µM compound, 0.390625 µM): 104.3% and 107.1%
activity at 0.390625 µM (PRDM7; 0.390625 µM compound, read-out: PRDM7-Activity %, Average (n=3)): 105%
activity at 0.390625 µM (PRDM7; 0.390625 µM compound, read-out: PRDM7-Activity %, single experiments): 103%
PRDM7-Activity %, single experiments (PRDM7; 0.78125 µM compound, 0.78125 µM): 95.5% and 104.5%
activity at 0.78125 µM (PRDM7; 0.78125 µM compound, read-out: PRDM7-Activity %, Average (n=3)): 99.4%
activity at 0.78125 µM (PRDM7; 0.78125 µM compound, read-out: PRDM7-Activity %, single experiments): 98.3%
PRDM7-Activity %, single experiments (PRDM7; 1.5625 µM compound, 1.5625 µM): 97.86% and 90.81%
activity at 1.5625 µM (PRDM7; 1.5625 µM compound, read-out: PRDM7-Activity %, Average (n=3)): 94.9%
activity at 1.5625 µM (PRDM7; 1.5625 µM compound, read-out: PRDM7-Activity %, single experiments): 96.1%
PRDM7-Activity %, single experiments (PRDM7; 3.125 µM compound, 3.125 µM): 99.32% and 89.67%
activity at 3.125 µM (PRDM7; 3.125 µM compound, read-out: PRDM7-Activity %, Average (n=3)): 95.4%
activity at 3.125 µM (PRDM7; 3.125 µM compound, read-out: PRDM7-Activity %, single experiments): 97.1%
PRDM7-Activity %, single experiments (PRDM7; 6.25 µM compound, 6.25 µM): 81.54% and 82.05%
activity at 6.25 µM (PRDM7; 6.25 µM compound, read-out: PRDM7-Activity %, Average (n=3)): 81.6%
activity at 6.25 µM (PRDM7; 6.25 µM compound, read-out: PRDM7-Activity %, single experiments): 81.2%
PRDM7-Activity %, single experiments (PRDM7; 12.5 µM compound, 12.5 µM): 70.89% and 77.38%
activity at 12.5 µM (PRDM7; 12.5 µM compound, read-out: PRDM7-Activity %, Average (n=3)): 74.1%
activity at 12.5 µM (PRDM7; 12.5 µM compound, read-out: PRDM7-Activity %, single experiments): 74%
PRDM7-Activity %, single experiments (PRDM7; 25 µM compound, 25 µM): 64.86% and 73.52%
activity at 25 µM (PRDM7; 25 µM compound, read-out: PRDM7-Activity %, Average (n=3)): 69.3%
activity at 25 µM (PRDM7; 25 µM compound, read-out: PRDM7-Activity %, single experiments): 69.4%
activity at 50 µM (PRDM7; read-out: PRDM7-Activity %, Average (n=3)): 46.3%
activity at 50 µM (PRDM7; read-out: PRDM7-Activity %, single experiments): 47.1%
PRDM7-Activity %, single experiments (PRDM7; 100 µM compound, 100 µM): 28% and 33.38%
activity at 100 µM (PRDM7; 100 µM compound, read-out: PRDM7-Activity %, Average (n=3)): 30%
activity at 100 µM (PRDM7; 100 µM compound, read-out: PRDM7-Activity %, single experiments): 28.6%
PRDM7-Activity %, single experiments (PRDM7; 200 µM compound, 200 µM): 12.96% and 18.48%
activity at 200 µM (PRDM7; 200 µM compound, read-out: PRDM7-Activity %, Average (n=3)): 15.8%
activity at 200 µM (PRDM7; 200 µM compound, read-out: PRDM7-Activity %, single experiments): 16.1%
IC50 (PRDM7; biotinylated H3 (1–25) peptide): 45 ± 7 µM
Tm of PRDM9 in cells (NALTSA) ([1]; 10 µM compound, 0.1% DMSO, 1 h, DMSO control Tm 52 ± 0.3 °C): 54 ± 0.2 °C
∆Tm of PRDM9 in cells (NALTSA) ([1]; 10 µM compound, 1 h, versus DMSO): 2 °C
∆Tm (°C) ([1]; Fig. 5b, replicates): 2.141 °C and 1.141 °C and 2.73 °C
Normalized_Signal ([1]; Temperature 41.9 °C): 1
Normalized_Signal ([1]; Temperature 42.4 °C): 1.082 and 0.9671 and 1.026
Normalized_Signal ([1]; Temperature 43.6 °C): 1.044 and 1.056 and 1.097
Normalized_Signal ([1]; Temperature 45.5 °C): 1.058 and 1.067 and 0.973
Normalized_Signal ([1]; Temperature 47.8 °C): 1.041 and 0.9815 and 0.9273
Normalized_Signal ([1]; Temperature 50.4 °C): 0.9323 and 0.8369 and 0.6881
Normalized_Signal ([1]; Temperature 53.1 °C): 0.6552 and 0.5708 and 0.5431
Normalized_Signal ([1]; Temperature 55.8 °C): 0.4561 and 0.4452 and 0.3801
Normalized_Signal ([1]; Temperature 58.1 °C): 0.3081 and 0.2709 and 0.2289
Normalized_Signal ([1]; Temperature 60.1 °C): 0.1968 and 0.1844 and 0.1466
Normalized_Signal ([1]; Temperature 61.5 °C): 0.1518 and 0.1586 and 0.1205
Normalized_Signal ([1]; Temperature 62.1 °C): 0.1417 and 0.1648 and 0.1053
HEK293T cell growth (in words) (HEK293T cells; 3 µM, 24 h of treatment): neither compound affected HEK293T cell growth
Cell# - toxocity data, % Control (HEK293T cells; 1 µM): 89.1325 % Control and 119.658 % Control and 130.764 % Control
Cell# - toxocity data, % Control (HEK293T cells; 3 µM): 81.2039 % Control and 117.832 % Control and 120.808 % Control
Cell# - toxocity data, % Control (HEK293T cells; 5 µM): 86.208 % Control and 117.65 % Control and 129.14 % Control
Cell# - toxocity data, % Control (HEK293T cells; 10 µM): 89.6654 % Control and 116.798 % Control and 107.394 % Control
